We go through three compounds from patent US20110280940A1, “Di-Vanilloyl And Tri-Vanilloyl Derivatives For Use In Anti-Cancer Therapy” (priority 2008, published 2011).

Some results are limits rather than exact numbers.

In one experiment the test system is 250 protein kinases. As to the kind of experiment: Kinase inhibition profile of DLT11 at 20 μM (33 PanQinase). The experiment is classed as biochemical, human. As to conditions: out of 250 kinases. Here is the method:
The kinase inhibition profile of DLT11 at 20 μM was determined using 250 protein kinases. Residual activity values were measured by testing each compound at one concentration in duplicate in each kinase assay. A radiometric protein kinase assay (33 PanQinase®Activity Assay) was used for measuring the kinase activity of 250 protein kinases. All kinase assays were performed in 96-well flashPlates™ from Perkin Elmer (Boston, Mass., USA) in a 50 μl reaction volume. The reaction cocktail was pipetted in 4 steps in the following order: • 10 μl of non-radioactive ATP solution (in H2O) • 25 μl of assay buffer/[γ-33P]-ATP mixture • 5 μl of test sample in 10% DMSO • 10 μl of enzyme/substrate mixture […]
Incorporation of ^33Pi (counting of “cpm”) was determined with a microplate scintillation counter (Microbeta, Wallac).
For each kinase, the median value of the cpm of three wells with complete reaction cocktails, but without kinase, was defined as “low control” (n=3). This value reflects unspecific binding of radioactivity to the plate in the absence of protein kinase but in the presence of the substrate. […] The residual activity (in %) for each compound well was calculated by using the following formula: Res. Activity (%)=100×[(cpm of compound−low control)/(high control−low control)] […]

Experiment [1] has as its system PC-3 prostate cancer cells. Nature of the experiment: MTT colorimetric assay, overall cell growth, PC-3. The experiment is classed as cell-based, human. The conditions noted are these: Homo sapiens, 72 hours of incubation, read-out: In Vitro IC50 Growth Inhibitory Values, PC-3. Summed up:
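Growth is measured as remaining living cells relative to untreated controls after 72 h at 37 °C with compound at 10^-8 to 10^-4 M. Readout is MTT formazan absorbance at 570 nm.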
On the technique in general: Tetrazolium assays rely on reduction of a dye to a coloured formazan, in cell work by metabolically active cells.

Another experiment has as its target Erk2 (Rattus norvegicus, UniProt P63086). Nature of the experiment: Kinase activity assay, Erk2. As to conditions: 10 μM, 1% DMSO, 15 μM ATP; residual activity. The class given is biochemical. Here is the method: Buffer A: 10 mM MgCl2, 1 mM EGTA, 1 mM DTT, 25 mM Tris-HCl pH 7.5, 50 μg heparin/ml. Buffer C: 60 mM β-glycerophosphate, 15 mM p-nitrophenylphosphate, 25 mM Mops (pH 7.2), 5 mM EGTA, 15 mM MgCl2, 1 mM DTT, 1 mM sodium vanadate, 1 mM phenyl phosphate.
Kinase activities were assayed in Buffer A or C, at 30° C., at a final ATP concentration of 15 μM. Blank values were subtracted and activities expressed in % of the maximal activity, i.e. in the absence of inhibitors. Controls were performed with appropriate dilutions of DMSO.
Erk2 (rat, recombinant) was assayed as described for CDK1 but using the specific substrate Ets1 (amino acids 1-138) in buffer A.

Chain of Erk2 (P63086 whole entry): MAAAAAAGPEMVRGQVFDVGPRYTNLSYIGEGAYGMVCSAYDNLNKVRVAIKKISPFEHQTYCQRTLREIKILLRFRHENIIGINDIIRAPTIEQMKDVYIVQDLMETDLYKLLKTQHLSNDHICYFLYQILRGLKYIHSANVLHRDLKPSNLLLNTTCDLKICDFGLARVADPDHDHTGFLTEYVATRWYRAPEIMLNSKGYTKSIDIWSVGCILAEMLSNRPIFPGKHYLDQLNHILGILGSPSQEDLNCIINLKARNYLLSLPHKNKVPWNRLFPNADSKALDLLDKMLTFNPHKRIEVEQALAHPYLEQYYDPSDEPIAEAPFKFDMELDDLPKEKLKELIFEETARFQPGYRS

With `COc1cc(C(=O)OCCCCCCOC(=O)c2ccc(O)c(OC)c2)ccc1O` [DLT11, Hexane-1,6-diyl bis-(4-hydroxy-3-methoxybenzoate)], in the experiment on 250 protein kinases, the “number of kinases that had their activity inhibited” value came out at 19.

For orientation: IC50 means the concentration at which inhibition is half-maximal. In the case of `COc1cc(C(=O)O)ccc1O` [vanillic acid, reference compound], the 50% inhibitory concentration (IC50) in experiment [1] is greater than 1000 µM.

`COc1cc(C(=O)OCCOC(=O)c2ccc(O)c(OC)c2)ccc1O` [DLT1, Ethane-1,2-diyl bis-(4-hydroxy-3-methoxybenzoate)]: on Erk2, the “% ENZYMATIC ACTIVITY, Erk2” value was found to be 99%.
